# Test results as given in US20230139445A1, “BACTERIAL CELLS WITH IMPROVED TOLERANCE TO DIACIDS” (priority 2016, published 2023).
# Where “and” joins values, the source holds several entries; their conditions need not be identical. Identical values can stand only once.
# What was measured:
# [1] = test system: Escherichia coli K-12 MG1655 evolved isolates and knockout mutants; experiment: Biolector growth screening of evolved isolates and reconstructed (knockout) mutants in glutaric or adipic acid; format: cell-based
# Description: Biological triplicate cultures of each strain were grown to saturation overnight in 96 well deepwell plates containing 300 μL M9+1% glucose. The next day, cells were diluted 1:10 in deionized water in a clear 96 well plate and the OD600 was measured on a BioTek plate reader. 48 well FlowerPlates containing a final volume of 1.4 mL of M9+1/o glucose (plus relevant chemical) were inoculated to OD600 0.03 (with plate reader pathlength, 200 μL volume) with the overnight culture and sealed with Breathseal film. Light backscatter intensity was monitored in a Biolector microbioreactor system at 37° C. with 1000 rpm shaking.
# Each re-sequenced isolate was characterized using the Biolector system for growth at the screening concentration of chemical (47.5 g/L glutaric acid or 50 g/L adipic acid) in biological triplicates.
# [2] = test system: Escherichia coli K-12 MG1655; experiment: Screening for tolerance in wild-type cells: growth in varying concentrations of neutralized diacid, Biolector; format: cell-based; details: for tlag (lag time), mean / μ (growth rate), mean: neutralized with sodium hydroxide
# Description: Escherichia coli K-12 MG1655 was grown overnight in M9 minimal medium+1% glucose and subcultured the following morning to an initial OD600 of 0.05 in M9+1% glucose. Cells were grown to mid-exponential phase (OD600 0.7-1.0) and were back-diluted with fresh medium to an OD600 of 0.7. The diluted cells were used to inoculate M9+1% glucose containing varying concentrations of glutaric acid or adipic acid which were neutralized to pH 7.0 with sodium hydroxide, and growth was measured in FlowerPlates in a Biolector microbioreactor system (m2p-labs) at 37° C. with 1000 rpm shaking. The culture volume in each well was 1.4 mL.
# [3] = strain ADIP1-1, M9 + 50 g/L adipic acid (neutralized with sodium hydroxide)
# [4] = strain ADIP1-9, M9 + 50 g/L adipic acid (neutralized with sodium hydroxide)
# [5] = strain ADIP2-5, M9 + 50 g/L adipic acid (neutralized with sodium hydroxide)
# [6] = strain ADIP2-6, M9 + 50 g/L adipic acid (neutralized with sodium hydroxide)
# [7] = strain ADIP2-10, M9 + 50 g/L adipic acid (neutralized with sodium hydroxide)
# [8] = strain ADIP3-2, M9 + 50 g/L adipic acid (neutralized with sodium hydroxide)
# [9] = strain ADIP3-4, M9 + 50 g/L adipic acid (neutralized with sodium hydroxide)
# [10] = strain ADIP3-8, M9 + 50 g/L adipic acid (neutralized with sodium hydroxide)
# [11] = strain ADIP4-8, M9 + 50 g/L adipic acid (neutralized with sodium hydroxide)
# [12] = strain ADIP5-2, M9 + 50 g/L adipic acid (neutralized with sodium hydroxide)
# [13] = strain ADIP5-6, M9 + 50 g/L adipic acid (neutralized with sodium hydroxide)
# [14] = strain ADIP6-3, M9 + 50 g/L adipic acid (neutralized with sodium hydroxide)
# [15] = strain ADIP6-9, M9 + 50 g/L adipic acid (neutralized with sodium hydroxide)
# [16] = strain ADIP6-10, M9 + 50 g/L adipic acid (neutralized with sodium hydroxide)
# [17] = strain ADIP7-2, M9 + 50 g/L adipic acid (neutralized with sodium hydroxide)
# [18] = strain ADIP7-5, M9 + 50 g/L adipic acid (neutralized with sodium hydroxide)
# [19] = strain ADIP8-3, M9 + 50 g/L adipic acid (neutralized with sodium hydroxide)
# [20] = strain ADIP8-7, M9 + 50 g/L adipic acid (neutralized with sodium hydroxide)
# [21] = strain ADIP8-10, M9 + 50 g/L adipic acid (neutralized with sodium hydroxide)
# [22] = strain MG1655-1, M9 + 50 g/L adipic acid (neutralized with sodium hydroxide)
smiles,measurement,setting,value
O=C(O)CCCCC(=O)O [adipic acid],mean growth rate μ,[1]; [3],0.315 h⁻¹
same,mean lag time tlag,[1]; [3],16.6 h
same,mean growth rate μ,[1]; [4],0.274 h⁻¹
same,mean lag time tlag,[1]; [4],5.8 h
same,mean growth rate μ,[1]; [5],0.332 h⁻¹
same,mean lag time tlag,[1]; [5],20.1 h
same,mean growth rate μ,[1]; [6],0.337 h⁻¹
same,mean lag time tlag,[1]; [6],22.1 h
same,mean growth rate μ,[1]; [7],0.326 h⁻¹
same,mean lag time tlag,[1]; [7],20.8 h
same,mean growth rate μ,[1]; [8],0.295 h⁻¹
same,mean lag time tlag,[1]; [8],16.6 h
same,mean growth rate μ,[1]; [9],0.305 h⁻¹
same,mean lag time tlag,[1]; [9],23.3 h
same,mean growth rate μ,[1]; [10],0.295 h⁻¹
same,mean lag time tlag,[1]; [10],20.1 h
same,mean growth rate μ,[1]; [11],0.332 h⁻¹
same,mean lag time tlag,[1]; [11],6.8 h
same,mean growth rate μ,[1]; [12],0.401 h⁻¹
same,mean lag time tlag,[1]; [12],4.7 h
same,mean growth rate μ,[1]; [13],0.370 h⁻¹
same,mean lag time tlag,[1]; [13],14.4 h
same,mean growth rate μ,[1]; [14],0.280 h⁻¹
same,mean lag time tlag,[1]; [14],6.5 h
same,mean growth rate μ,[1]; [15],0.279 h⁻¹
same,mean lag time tlag,[1]; [15],6.8 h
same,mean growth rate μ,[1]; [16],0.284 h⁻¹
same,mean lag time tlag,[1]; [16],7.1 h
same,mean growth rate μ,[1]; [17],0.189 h⁻¹
same,mean lag time tlag,[1]; [17],7.6 h
same,mean growth rate μ,[1]; [18],0.292 h⁻¹
same,mean lag time tlag,[1]; [18],19.3 h
same,mean growth rate μ,[1]; [19],0.201 h⁻¹
same,mean lag time tlag,[1]; [19],6.0 h
same,mean growth rate μ,[1]; [20],0.206 h⁻¹
same,mean lag time tlag,[1]; [20],7.2 h
same,mean growth rate μ,[1]; [21],0.200 h⁻¹
same,mean lag time tlag,[1]; [21],6.8 h
same,mean growth rate μ,[1]; [22],0.133 h⁻¹
same,mean lag time tlag,[1]; [22],21.4 h
same,"tlag (lag time), mean",[2]; 10 g/L,1.0 h
same,"μ (growth rate), mean","[2]; 10 g/L, M9+1% glucose, 37° C",0.575 h⁻¹
same,"tlag (lag time), mean",[2]; 20 g/L,1.3 h
same,"μ (growth rate), mean",[2]; 20 g/L,0.494 h⁻¹
same,"tlag (lag time), mean",[2]; 30 g/L,1.8 h
same,"μ (growth rate), mean",[2]; 30 g/L,0.367 h⁻¹
same,"tlag (lag time), mean",[2]; 40 g/L,4.0 h
same,"μ (growth rate), mean",[2]; 40 g/L,0.263 h⁻¹
same,"tlag (lag time), mean",[2]; 50 g/L,2.4 h
same,"μ (growth rate), mean",[2]; 50 g/L,0.120 h⁻¹
same,"tlag (lag time), mean",[2]; 75 g/L,27 h and 27.2 h
same,"μ (growth rate), mean",[2]; 75 g/L,0.203 h⁻¹
same,"μ (growth rate), mean",[2]; 100 g/L,0.000 h⁻¹
same,maximum measured concentration at which exponentially growing K-12 MG1655 can grow,[2]; neutralized diacid in M9+1% glucose,75 g/L
